Experimental data taken from publication PMC5357639 (Frontiers in Chemistry, 2017).
Several values for one entry are separate records, joined by “and”; a condition that tells them apart may be missing. Equal entries are not always repeated. Where a SMILES comes first, the peptide text is derived from it. The star is where a group is joined. Orn(α-tetramethylguanidino) = CN(C)C(=N[C@@H](CCCN)C(=O)*)N(C)C

Legend:
[1] = in vitro; assay type: in vitro ADME, CD-1 mice; details: female, CD-1, mouse, cerebrospinal or other body fluid
Description: Peritoneal lavage (1.5–2 mL) were collected from three euthanized female CD-1 mice (14 weeks, 32–33 g) after injecting sterile PBS intraperitoneal (4 mL). Peptides were incubated with aliquots (95 μL) of fresh lavage (75 μg/mL, 37°C, 750 rpm). After 0, 30, and 60 min trichloroacetic acid (25 μL, 15% w/v) was added to the samples to precipitate proteins, incubated on ice (10 min), and centrifuged (5 min, 12.400 × g). Supernatants were neutralized with sodium hydroxide (1 mol/L) and analyzed by RP-HPLC using a Poroshell 120 SB-C18-column (2.1 mm internal diameter, 100 mm length, 2.7 μm particle size, 12 nm pore size, Agilent Technologies Inc., Santa Clara, CA, USA) at 60°C and an aqueous acetonitrile gradient containing trifluoroacetic acid (0.1%, v/v). Absorbance was recorded at a wavelength of 214 nm.

[2] = molecular target: 70S ribosomes; details: binding to 70S ribosomes; ref Krizsan et al., 2014; cited from earlier work
Text: Antimicrobial peptides (AMPs) are considered as promising alternatives to common antibiotics that threateningly lose their therapeutic potentials against multidrug-resistant pathogens (Fox, [2013]; Wang et al., [2015]). In contrast to approved therapeutic peptide hormones, antimicrobial peptides have to be administered at much higher doses, which may amplify general drawbacks of peptide therapeutics. For example, the diabetes peptide drugs exenatide and pramlintide are given at daily doses of 20 μg (Byetta®; ~0.5 μg/kg) and 120 μg (Symlin®; ~1.5 μg/kg; Heine et al., [2005]; Hay et al., [2015]) ...

[3] = system: E. coli ATCC 25922; details: E. coli ATCC 25922; ref Czihal et al., 2012; Berthold et al., 2013; cited from earlier work
Text: Antimicrobial peptides (AMPs) are considered as promising alternatives to common antibiotics that threateningly lose their therapeutic potentials against multidrug-resistant pathogens (Fox, [2013]; Wang et al., [2015]). In contrast to approved therapeutic peptide hormones, antimicrobial peptides have to be administered at much higher doses, which may amplify general drawbacks of peptide therapeutics. For example, the diabetes peptide drugs exenatide and pramlintide are given at daily doses of 20 μg (Byetta®; ~0.5 μg/kg) and 120 μg (Symlin®; ~1.5 μg/kg; Heine et al., [2005]; Hay et al., [2015]) ... || Apidaecin analogs Api88 and Api137 are similarly active against Gram-negative bacteria with a tendency of higher activity of Api88 against K. pneumoniae (Czihal et al., [2012]; Berthold et al., [2013]). However, Api88 carries a C-terminal amide that is responsible for its very fast proteolytic cleavage in serum, the supernatant obtained after complete coagulation and centrifugation of blood. The in vitro serum stability assay, which is an important in vitro criterion to select therapeutic peptides for systemic applications, yielded very short half-life times of 5 min for Api88, which indicate ...

| SMILES | remaining at 1 h, 75 μg/mL [1] | Kd [2] | MIC [3] | half-life at 75 μg/mL [1] |
| --- | --- | --- | --- | --- |
| CC[C@H](C)[C@H](NC(=O)[C@H](Cc1ccc(O)cc1)NC(=O)[C@@H](NC(=O)[C@@H]1CCCN1C(=O)[C@H](CCCNC(=N)N)NC(=O)[C@H](CC(N)=O)NC(=O)[C@H](CC(N)=O)NC(=O)[C@H](CCCN)N=C(N(C)C)N(C)C)C(C)C)C(=O)N1CCC[C@H]1C(=O)N[C@@H](CCCNC(=N)N)C(=O)N1CCC[C@H]1C(=O)N[C@@H](CCCNC(=N)N)C(=O)N1CCC[C@H]1C(=O)N1CCC[C@H]1C(=O)N[C@@H](Cc1c[nH]cn1)C(=O)N1CCC[C@H]1C(=O)N[C@@H](CCCNC(=N)N)C(=O)N[C@@H](CC(C)C)C(N)=O [Api88] ({Orn(α-tetramethylguanidino)}-NNRPVYIPRPRPPHPRL-NH2) | > 60% | 1200 nM | ~ 4 μg/mL |  |
| CC[C@H](C)[C@H](NC(=O)[C@H](Cc1ccc(O)cc1)NC(=O)[C@@H](NC(=O)[C@@H]1CCCN1C(=O)[C@H](CCCNC(=N)N)NC(=O)[C@H](CC(N)=O)NC(=O)[C@H](CC(N)=O)NC(=O)[C@H](CCCN)N=C(N(C)C)N(C)C)C(C)C)C(=O)N1CCC[C@H]1C(=O)N[C@@H](CCCNC(=N)N)C(=O)N1CCC[C@H]1C(=O)N[C@@H](CCCNC(=N)N)C(=O)N1CCC[C@H]1C(=O)N1CCC[C@H]1C(=O)N[C@@H](Cc1c[nH]cn1)C(=O)N1CCC[C@H]1C(=O)N[C@@H](CCCNC(=N)N)C(=O)N[C@@H](CC(C)C)C(=O)O [Api137] ({Orn(α-tetramethylguanidino)}-NNRPVYIPRPRPPHPRL-OH) |  | 560 nM | 4 μg/mL and ~ 4 μg/mL | ~20 min |
